{"source": "paper PMC9133015", "about": "(Nature Communications, 2022)", "assay_in_all_cases": "Kinase inhibitor specificity profiling (Reaction Biology Corporation)", "assay_type_in_all_cases": "biochemical", "set-up_in_all_cases": "% Enzyme Activity (relative to DMSO controls): concentration or dose not given beside the values", "key": {"[1]": {"target": "T1, panel of 370 protein kinases (Homo sapiens, UniProt P43250)", "T1 construct": "purchased Reaction Biology Corporation (assay service)", "details": "2 h, kinase GRK6; read-out: % Enzyme Activity (relative to DMSO controls)"}, "[2]": {"target": "T2, panel of 370 protein kinases (Homo sapiens, UniProt Q9UM73)", "T2 construct": "purchased Reaction Biology Corporation (assay service)", "T2 sequence (Q9UM73 19-1620)": "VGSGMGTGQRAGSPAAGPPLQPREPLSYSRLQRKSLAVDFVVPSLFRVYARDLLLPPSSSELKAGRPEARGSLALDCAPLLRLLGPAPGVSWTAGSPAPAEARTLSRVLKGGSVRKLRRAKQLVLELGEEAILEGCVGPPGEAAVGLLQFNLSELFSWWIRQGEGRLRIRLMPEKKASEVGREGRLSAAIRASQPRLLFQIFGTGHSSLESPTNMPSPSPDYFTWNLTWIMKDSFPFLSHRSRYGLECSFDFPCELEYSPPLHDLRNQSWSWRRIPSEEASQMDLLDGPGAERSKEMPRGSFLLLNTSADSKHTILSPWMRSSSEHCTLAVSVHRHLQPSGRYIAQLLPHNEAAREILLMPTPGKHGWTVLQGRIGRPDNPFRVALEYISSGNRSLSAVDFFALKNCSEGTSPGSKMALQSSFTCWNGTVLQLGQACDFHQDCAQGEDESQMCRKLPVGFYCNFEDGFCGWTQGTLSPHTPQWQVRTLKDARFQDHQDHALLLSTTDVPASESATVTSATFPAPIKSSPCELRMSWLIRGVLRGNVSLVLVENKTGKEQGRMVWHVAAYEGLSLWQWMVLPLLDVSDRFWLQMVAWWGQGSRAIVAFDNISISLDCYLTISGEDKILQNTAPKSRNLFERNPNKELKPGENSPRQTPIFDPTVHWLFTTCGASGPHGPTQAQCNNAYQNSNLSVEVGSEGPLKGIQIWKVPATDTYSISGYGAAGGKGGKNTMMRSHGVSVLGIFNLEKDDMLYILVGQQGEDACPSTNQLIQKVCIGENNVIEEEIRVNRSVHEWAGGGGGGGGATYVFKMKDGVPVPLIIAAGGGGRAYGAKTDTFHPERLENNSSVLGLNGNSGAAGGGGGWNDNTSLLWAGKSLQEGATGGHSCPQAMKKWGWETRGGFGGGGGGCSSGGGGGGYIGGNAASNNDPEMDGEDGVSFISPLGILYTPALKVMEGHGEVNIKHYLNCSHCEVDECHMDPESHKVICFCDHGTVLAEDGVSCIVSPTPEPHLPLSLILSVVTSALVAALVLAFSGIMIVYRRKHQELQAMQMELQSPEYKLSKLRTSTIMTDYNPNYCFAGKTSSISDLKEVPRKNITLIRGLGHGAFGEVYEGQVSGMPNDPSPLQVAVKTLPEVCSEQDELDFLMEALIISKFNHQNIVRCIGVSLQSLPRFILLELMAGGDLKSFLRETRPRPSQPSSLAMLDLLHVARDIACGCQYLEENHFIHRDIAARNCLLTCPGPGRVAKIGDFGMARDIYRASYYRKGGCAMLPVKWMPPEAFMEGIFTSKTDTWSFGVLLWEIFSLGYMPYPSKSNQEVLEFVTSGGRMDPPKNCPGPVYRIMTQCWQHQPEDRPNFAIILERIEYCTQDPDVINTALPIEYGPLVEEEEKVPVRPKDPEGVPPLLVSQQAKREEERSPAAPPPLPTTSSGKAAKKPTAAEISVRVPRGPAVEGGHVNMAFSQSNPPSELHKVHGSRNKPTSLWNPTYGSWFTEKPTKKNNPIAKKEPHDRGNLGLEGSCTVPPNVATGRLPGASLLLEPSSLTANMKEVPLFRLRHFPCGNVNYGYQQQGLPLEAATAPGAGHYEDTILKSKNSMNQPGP", "details": "2 h, kinase ALK; read-out: % Enzyme Activity (relative to DMSO controls)"}, "[3]": {"target": "T3, panel of 370 protein kinases (Homo sapiens, UniProt P29322)", "T3 construct": "purchased Reaction Biology Corporation (assay service)", "details": "2 h, kinase EPHA8; read-out: % Enzyme Activity (relative to DMSO controls)"}, "[4]": {"target": "T4, panel of 370 protein kinases (Homo sapiens, UniProt Q12851)", "T4 construct": "purchased Reaction Biology Corporation (assay service)", "details": "2 h, kinase GCK/MAP4K2; read-out: % Enzyme Activity (relative to DMSO controls)"}, "[5]": {"target": "T5, panel of 370 protein kinases (Homo sapiens, UniProt Q99683)", "T5 construct": "purchased Reaction Biology Corporation (assay service)", "details": "2 h, kinase ASK1/MAP3K5; read-out: % Enzyme Activity (relative to DMSO controls)"}, "[6]": {"target": "T6, panel of 370 protein kinases (Homo sapiens, UniProt P28482)", "T6 construct": "purchased Reaction Biology Corporation (assay service)", "T6 sequence (P28482 whole entry)": "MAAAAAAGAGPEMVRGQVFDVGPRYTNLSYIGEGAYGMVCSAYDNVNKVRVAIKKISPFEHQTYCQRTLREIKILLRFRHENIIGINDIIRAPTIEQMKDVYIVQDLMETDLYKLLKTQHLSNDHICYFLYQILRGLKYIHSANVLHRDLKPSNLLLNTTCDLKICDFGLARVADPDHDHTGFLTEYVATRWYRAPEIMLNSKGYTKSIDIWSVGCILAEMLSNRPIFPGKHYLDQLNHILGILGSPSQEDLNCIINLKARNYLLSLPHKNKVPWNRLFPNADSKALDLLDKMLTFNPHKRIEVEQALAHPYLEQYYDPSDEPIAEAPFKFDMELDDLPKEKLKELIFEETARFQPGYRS", "details": "2 h, kinase ERK2/MAPK1; read-out: % Enzyme Activity (relative to DMSO controls)"}, "[7]": {"target": "T7, panel of 370 protein kinases (Homo sapiens, UniProt Q9HC98)", "T7 construct": "purchased Reaction Biology Corporation (assay service)", "details": "2 h, kinase NEK6; read-out: % Enzyme Activity (relative to DMSO controls)"}, "[8]": {"target": "T8, panel of 370 protein kinases (Homo sapiens, UniProt P32298)", "T8 construct": "purchased Reaction Biology Corporation (assay service)", "details": "2 h, kinase GRK4; read-out: % Enzyme Activity (relative to DMSO controls)"}, "[9]": {"target": "T9, panel of 370 protein kinases (Homo sapiens, UniProt P68400)", "T9 construct": "purchased Reaction Biology Corporation (assay service)", "T9 sequence (P68400 whole entry)": "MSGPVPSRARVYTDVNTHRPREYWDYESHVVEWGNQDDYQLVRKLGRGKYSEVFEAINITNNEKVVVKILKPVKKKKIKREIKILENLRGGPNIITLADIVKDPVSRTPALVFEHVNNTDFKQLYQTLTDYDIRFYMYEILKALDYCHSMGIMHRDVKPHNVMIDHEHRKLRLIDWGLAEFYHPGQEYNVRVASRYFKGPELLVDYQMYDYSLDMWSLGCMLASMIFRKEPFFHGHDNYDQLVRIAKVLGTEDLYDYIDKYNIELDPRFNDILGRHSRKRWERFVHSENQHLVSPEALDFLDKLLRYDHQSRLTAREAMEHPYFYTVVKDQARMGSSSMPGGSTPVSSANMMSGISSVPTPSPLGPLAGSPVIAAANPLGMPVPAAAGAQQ", "details": "2 h, kinase CK2a; read-out: % Enzyme Activity (relative to DMSO controls)"}, "[10]": {"target": "T10, panel of 370 protein kinases (Homo sapiens, UniProt Q9Y2H1)", "T10 construct": "purchased Reaction Biology Corporation (assay service)", "details": "2 h, kinase STK38L/NDR2; read-out: % Enzyme Activity (relative to DMSO controls)"}, "[11]": {"target": "T11, panel of 370 protein kinases (Homo sapiens, UniProt P06493)", "T11 construct": "purchased Reaction Biology Corporation (assay service)", "T11 sequence (P06493 whole entry)": "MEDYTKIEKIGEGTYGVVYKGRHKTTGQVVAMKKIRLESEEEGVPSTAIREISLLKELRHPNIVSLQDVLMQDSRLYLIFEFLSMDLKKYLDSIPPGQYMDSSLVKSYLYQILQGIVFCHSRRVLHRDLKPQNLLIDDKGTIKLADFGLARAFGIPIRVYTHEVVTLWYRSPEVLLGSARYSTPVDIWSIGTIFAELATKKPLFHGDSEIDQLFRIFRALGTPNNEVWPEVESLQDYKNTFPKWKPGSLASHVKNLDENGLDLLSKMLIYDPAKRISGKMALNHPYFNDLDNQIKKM", "details": "2 h, read-out: % Enzyme Activity (relative to DMSO controls)"}, "[12]": {"target": "T12, panel of 370 protein kinases (Homo sapiens, UniProt O15264)", "T12 construct": "purchased Reaction Biology Corporation (assay service)", "details": "2 h, kinase P38d/MAPK13; read-out: % Enzyme Activity (relative to DMSO controls)"}, "[13]": {"target": "T13, panel of 370 protein kinases (Homo sapiens, UniProt O94806)", "T13 construct": "purchased Reaction Biology Corporation (assay service)", "T13 sequence (O94806 whole entry)": "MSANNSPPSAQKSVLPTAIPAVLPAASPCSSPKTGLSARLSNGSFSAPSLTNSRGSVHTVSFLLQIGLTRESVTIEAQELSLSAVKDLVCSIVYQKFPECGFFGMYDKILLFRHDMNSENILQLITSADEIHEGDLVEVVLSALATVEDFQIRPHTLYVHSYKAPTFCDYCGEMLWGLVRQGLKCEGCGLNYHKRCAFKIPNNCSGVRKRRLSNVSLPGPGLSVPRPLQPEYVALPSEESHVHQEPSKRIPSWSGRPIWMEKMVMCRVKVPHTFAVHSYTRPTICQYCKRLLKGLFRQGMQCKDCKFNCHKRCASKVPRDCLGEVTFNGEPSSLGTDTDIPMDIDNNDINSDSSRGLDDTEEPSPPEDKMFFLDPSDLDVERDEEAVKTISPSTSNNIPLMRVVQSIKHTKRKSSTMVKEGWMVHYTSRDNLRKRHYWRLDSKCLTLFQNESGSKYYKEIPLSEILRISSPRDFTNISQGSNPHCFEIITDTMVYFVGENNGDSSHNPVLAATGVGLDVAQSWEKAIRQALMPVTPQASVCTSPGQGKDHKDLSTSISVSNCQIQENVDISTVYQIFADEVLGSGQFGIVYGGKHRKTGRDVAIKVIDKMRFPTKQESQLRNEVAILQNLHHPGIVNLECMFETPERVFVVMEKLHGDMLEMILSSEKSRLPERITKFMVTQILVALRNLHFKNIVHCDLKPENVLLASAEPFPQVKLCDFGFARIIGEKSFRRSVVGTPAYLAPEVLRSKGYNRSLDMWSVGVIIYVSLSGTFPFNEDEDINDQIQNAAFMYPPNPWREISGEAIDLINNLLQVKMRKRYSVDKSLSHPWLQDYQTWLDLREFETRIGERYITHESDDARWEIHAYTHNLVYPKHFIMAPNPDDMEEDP", "details": "2 h, kinase PKCnu/PRKD3; read-out: % Enzyme Activity (relative to DMSO controls)"}, "[14]": {"target": "T14, panel of 370 protein kinases (Homo sapiens, UniProt Q6P2M8)", "T14 construct": "purchased Reaction Biology Corporation (assay service)", "T14 sequence (Q6P2M8 whole entry)": "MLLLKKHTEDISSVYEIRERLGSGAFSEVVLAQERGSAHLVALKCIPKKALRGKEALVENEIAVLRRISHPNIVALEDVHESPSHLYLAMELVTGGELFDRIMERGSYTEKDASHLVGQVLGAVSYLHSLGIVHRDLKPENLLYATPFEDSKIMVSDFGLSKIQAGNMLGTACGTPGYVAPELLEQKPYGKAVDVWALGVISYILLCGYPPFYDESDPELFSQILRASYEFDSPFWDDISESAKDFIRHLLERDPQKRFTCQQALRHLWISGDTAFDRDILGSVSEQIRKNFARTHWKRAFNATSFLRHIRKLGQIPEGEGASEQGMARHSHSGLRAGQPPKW", "details": "kinase CAMK1b"}, "[15]": {"target": "T15, panel of 370 protein kinases (Homo sapiens, UniProt P19784)", "T15 construct": "purchased Reaction Biology Corporation (assay service)", "details": "2 h, kinase CK2a2; read-out: % Enzyme Activity (relative to DMSO controls)"}, "[16]": {"target": "T16, panel of 370 protein kinases (Homo sapiens, UniProt Q04912)", "T16 construct": "purchased Reaction Biology Corporation (assay service)", "details": "2 h, kinase RON/MST1R; read-out: % Enzyme Activity (relative to DMSO controls)"}, "[17]": {"target": "T17, panel of 370 protein kinases (Homo sapiens, UniProt Q13554)", "T17 construct": "purchased Reaction Biology Corporation (assay service)", "details": "2 h, kinase CAMK2b; read-out: % Enzyme Activity (relative to DMSO controls)"}, "[18]": {"target": "T18, panel of 370 protein kinases (Homo sapiens, UniProt P41240)", "T18 construct": "purchased Reaction Biology Corporation (assay service)", "T18 sequence (P41240 whole entry)": "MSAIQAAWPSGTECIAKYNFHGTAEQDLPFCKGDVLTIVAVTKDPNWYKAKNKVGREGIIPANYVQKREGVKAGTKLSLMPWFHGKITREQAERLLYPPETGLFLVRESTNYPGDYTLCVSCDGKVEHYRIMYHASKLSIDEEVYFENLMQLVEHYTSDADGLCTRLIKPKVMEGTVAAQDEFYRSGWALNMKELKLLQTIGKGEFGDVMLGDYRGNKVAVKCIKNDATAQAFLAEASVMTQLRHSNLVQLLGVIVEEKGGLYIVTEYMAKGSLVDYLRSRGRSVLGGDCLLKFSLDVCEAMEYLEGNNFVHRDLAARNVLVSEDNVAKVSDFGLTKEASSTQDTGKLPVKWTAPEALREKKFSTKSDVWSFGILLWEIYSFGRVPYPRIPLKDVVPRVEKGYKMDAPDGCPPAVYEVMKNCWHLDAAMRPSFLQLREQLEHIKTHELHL", "details": "kinase CSK"}, "[19]": {"target": "T19, panel of 370 protein kinases (Homo sapiens, UniProt P45983)", "T19 construct": "purchased Reaction Biology Corporation (assay service)", "T19 sequence (P45983 whole entry)": "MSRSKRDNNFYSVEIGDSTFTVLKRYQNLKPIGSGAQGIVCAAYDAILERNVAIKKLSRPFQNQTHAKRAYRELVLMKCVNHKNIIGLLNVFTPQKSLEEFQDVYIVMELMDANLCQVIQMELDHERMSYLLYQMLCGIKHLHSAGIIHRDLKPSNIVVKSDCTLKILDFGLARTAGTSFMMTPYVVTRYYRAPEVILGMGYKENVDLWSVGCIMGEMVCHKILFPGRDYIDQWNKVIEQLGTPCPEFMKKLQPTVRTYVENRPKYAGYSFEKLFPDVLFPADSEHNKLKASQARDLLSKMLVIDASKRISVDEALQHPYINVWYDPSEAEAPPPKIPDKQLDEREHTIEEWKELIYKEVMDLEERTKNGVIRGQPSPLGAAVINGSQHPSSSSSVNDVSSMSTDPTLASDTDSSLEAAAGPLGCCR", "details": "kinase JNK1"}, "[20]": {"target": "T20, panel of 370 protein kinases (Homo sapiens, UniProt Q96PY6)", "T20 construct": "purchased Reaction Biology Corporation (assay service)", "details": "2 h, kinase NEK1; read-out: % Enzyme Activity (relative to DMSO controls)"}, "[21]": {"target": "T21, panel of 370 protein kinases (Homo sapiens, UniProt Q16513)", "T21 construct": "purchased Reaction Biology Corporation (assay service)", "details": "2 h, kinase PKN2/PRK2; read-out: % Enzyme Activity (relative to DMSO controls)"}}, "note": "Several values for one entry are separate records, joined by “and”; a condition that tells them apart may be missing. Identical values can stand only once. Like-named read-outs stand apart in the source and are kept apart here.", "data": [{"molecule": "CCN1CCN(C(=O)c2ccc(Nc3ncc(F)c(-c4ccc5nc(N(C)C)sc5c4)n3)nc2)CC1", "note": "[YK-2-69]", "values": [{"measurement": "remaining activity at 1 µM", "setting": "[1]", "result": 114, "unit": "%"}, {"measurement": "remaining activity at 1 µM", "setting": "[2]", "result": 98.8, "unit": "%"}, {"measurement": "remaining activity at 1 µM", "setting": "[3]", "result": 102, "unit": "%"}, {"measurement": "remaining activity at 1 µM", "setting": "[4]", "result": 96, "unit": "%"}, {"measurement": "remaining activity at 1 µM", "setting": "[5]", "result": 106, "unit": "%"}, {"measurement": "remaining activity at 1 µM", "setting": "[6]", "result": 101, "unit": "%"}, {"measurement": "remaining activity at 1 µM", "setting": "[7]", "result": 103, "unit": "%"}, {"measurement": "remaining activity at 1 µM", "setting": "[8]", "result": 95.1, "unit": "%"}, {"measurement": "remaining activity at 1 µM", "setting": "[9]", "result": 52.3, "unit": "%"}, {"measurement": "remaining activity at 1 µM", "setting": "[10]", "result": 95.4, "unit": "%"}, {"measurement": "remaining activity at 1 µM", "setting": "[11]; kinase CDK1/cyclin A", "result": 116, "unit": "%"}, {"measurement": "remaining activity at 1 µM", "setting": "[11]; kinase CDK1/cyclin B", "result": 119, "unit": "%"}, {"measurement": "remaining activity at 1 µM", "setting": "[11]; kinase CDK1/cyclin E", "result": 103, "unit": "%"}, {"measurement": "remaining activity at 1 µM", "setting": "[12]", "result": 102, "unit": "%"}, {"measurement": "remaining activity at 1 µM", "setting": "[13]", "result": 75.6, "unit": "%"}, {"measurement": "% Enzyme Activity (relative to DMSO controls)", "setting": "[14]", "result": "94.21% and 93.36%"}, {"measurement": "remaining activity at 1 µM", "setting": "[15]", "result": 51.4, "unit": "%"}, {"measurement": "remaining activity at 1 µM", "setting": "[16]", "result": 89.5, "unit": "%"}, {"measurement": "remaining activity at 1 µM", "setting": "[17]", "result": 78.5, "unit": "%"}, {"measurement": "% Enzyme Activity (relative to DMSO controls)", "setting": "[18]", "result": "102.94% and 101.79%"}, {"measurement": "% Enzyme Activity (relative to DMSO controls)", "setting": "[19]", "result": "71.84% and 70.88%"}, {"measurement": "remaining activity at 1 µM", "setting": "[20]", "result": 69.2, "unit": "%"}, {"measurement": "remaining activity at 1 µM", "setting": "[21]", "result": 88.4, "unit": "%"}]}]}
